{"source": "patent US20260240885A1", "about": "“PHOSPHORYLATED HEXAACYL DISACCHARIDES FOR TREATING OR PREVENTING ACUTE KIDNEY INJURY” (VANDERBILT UNIVERSITY, priority 2022, published 2026)", "key": {"[1]": {"tested_on": "bilateral IRI-AKI", "assay": "Bilateral IRI-AKI (bilateral renal pedicle clamping 24 min) in mice pretreated with PHAD", "type": "in vivo, mouse (male BALB/c)", "protocol": "(§1) A blinded, randomized controlled study in mice, assessed the efficacy of intravenous 3D 6-Acyl phosphorylated hexa-acyl disaccharide (PHAD, a de novo ultrapure synthetic toll-like receptor 4 agonist), to protect against IRI-AKI. Two cohorts of male BALB/c mice received intraperitoneal vehicle or PHAD (10, 20, or 40 μg); or intravenous vehicle or PHAD (2, 20, or 200 μg) at 48 and 24 hours prior to unilateral renal pedicle clamping and simultaneous contralateral nephrectomy (unilateral IRI-AKI). In a separate cohort, mice were treated with vehicle or 200 μg of PHAD followed by bilateral IRI-AKI. Mice were monitored for 3 days after reperfusion and euthanized.\n(§2) Kidney function was assessed by blood urea nitrogen (BUN) and serum creatinine measurements. Kidney tubular injury was assessed by semi-quantitative analysis of tubular morphology on PAS-stained kidney sections, and kidney mRNA quantification of injury (N-Gal, Kim-1 and HO-1) and inflammation (IL-6, IL-1b and TNF-α) using qRT-PCR technique. Additional studies were conducted using immunohistochemistry to quantify Kim-1 and F4/80 protein to assess kidney injury and macrophages, respectively. […] Histological injury and N-Gal mRNA were lower, and IL-1b mRNA higher in 200 μg 3D 6-Acyl PHAD treated mice.\n(§3) Ischemia Reperfusion Induced Acute Kidney Injury. Male BALB/c mice, 10- to 11-weeks old (22 to 25 g) were purchased from Charles River (Hollister, CA), and were allowed to acclimate for one week prior to studies. IRI-AKI surgery was performed under ketamine/xylazine anesthesia (120 mg/kg [3 mg ketamine], 12 mg/kg [0.3 mg] xylazine) administered in 100 μl sterile saline by intraperitoneal (IP) injection. Mice underwent two types of surgery to induce IRI-AKI. Unilateral IRI-AKI with contralateral nephrectomy (unilateral IRI), and in separate cohorts, bilateral IRI-AKI. For unilateral IRI, the mouse was placed prone on a heat pad set to 37° C., and incisions were made in the muscle and skin to exteriorize the right kidney for nephrectomy. The adrenal gland was displaced from the kidney, and 5-0 silk suture (Ethicon, LA53G) was tied around the renal artery, vein, and ureter with a double surgical knot, before the kidney was removed by cutting distally to the knot. The left kidney was then exteriorized, and fat and connective tissue were dissected from the renal pedicle to expose the renal artery and vein. A vascular clamp (Roboz, cat #RS-5459) was applied to the renal vasculature for 28 minutes. The kidney was tucked back under the skin and the mouse was kept warm on the heat pad during the 28 minutes of ischemia time. For bilateral IRI-AKI, mice underwent bilateral renal artery ischemia for 24 minutes without nephrectomy. Successful ischemia was confirmed by a dark purple appearance of the kidney prior to clamp removal, and successful reperfusion was confirmed by a return to the normal pink color of the kidney within 1-2 min of clamp removal. Upon removing the vascular clamp, the muscle wall was closed with 6-0 absorbable suture (Ethicon, J492G) followed by skin closure with 7 mm wound clips (Roboz, RS-9255, RS-9250). Upon skin closure, mice received 0.5 ml of warm sterile saline subcutaneous (SQ) immediately after surgery, and at 24 hours after surgery. Analgesia was provided with buprenorphine SQ immediately after surgery and every 12 hours for 3 days. Sham operated mice underwent the same surgical approaches (for unilateral IRI-AKI, they underwent right nephrectomy, but the left renal pedicle was not clamped, and for bilateral IRI-AKI, both kidneys were exteriorized but the renal pedicles were not clamped). Blood was collected at baseline (prior to injury), and days 1 and 3 after injury by submandibular vein puncture into a lithium-heparin coated microcuvette tubes, and plasma frozen at −80° C. for blood urea nitrogen (BUN) and creatinine assays. […]"}, "[2]": {"tested_on": "unilateral IRI-AKI", "assay": "Unilateral IRI-AKI (left renal pedicle clamping 28 min with contralateral nephrectomy) in mice pretreated with PHAD", "type": "in vivo, mouse (male BALB/c)", "protocol": "as §1, §2, §3"}, "[3]": {"conditions": "IV PHAD 200 μg/mouse 48 and 24 h before injury, 24 and 72 hours after bilateral IRI-AKI (FIG. 2A)"}, "[4]": {"conditions": "IV PHAD 200 μg/mouse vs vehicle, Day 3 (FIG. 2F)"}, "[5]": {"conditions": "IV PHAD 200 μg/mouse vs vehicle, Day 3 (FIG. 3)"}, "[6]": {"conditions": "IV PHAD 2, 20, 200 μg/mouse 48 and 24 h before injury, vs vehicle, post-injury day 1 and 3 (FIG. 1A)"}}, "note": "Entries after “also recorded” stand apart in the source; their conditions may differ.", "data": [{"smiles": "CCCCCCCCCCCCCC(=O)OC(CCCCCCCCCCC)CC(=O)NC1C(O)OC(COC2OC(CO)C(OP(=O)(O)O)C(OC(=O)CC(CCCCCCCCCCC)OC(=O)CCCCCCCCCCCCC)C2NC(=O)CC(CCCCCCCCCCC)OC(=O)CCCCCCCCCCCCC)C(O)C1O.N", "note": "(stereo not shown) [PHAD, monophosphoryl hexa-acyl Lipid A, 3-Deacyl 6-acyl phosphorylated hexa-acyl disaccharide]", "values": [{"measurement": "BUN levels", "setting": "[1]; [3]", "result": "reduced"}, {"measurement": "creatinine levels", "setting": "[1]; [3]", "result": "reduced"}, {"measurement": "3-day survival", "setting": "[1]; IV PHAD 200 μg/mouse vs vehicle (FIG. 6)", "result": "no difference in survival"}, {"measurement": "renal IL-1β mRNA (qRT-PCR)", "setting": "[1]; [4]", "result": "increased"}, {"measurement": "renal IL-6 mRNA (qRT-PCR)", "setting": "[1]; [4]", "result": "no differences"}, {"measurement": "renal Kim-1 mRNA (qRT-PCR)", "setting": "[1]; [4]", "result": "no differences"}, {"measurement": "renal N-Gal mRNA (qRT-PCR)", "setting": "[1]; [4]", "result": "lower levels"}, {"measurement": "renal Tnf-α mRNA (qRT-PCR)", "setting": "[1]; [4]", "result": "no differences"}, {"measurement": "F4/80 staining for renal macrophages", "setting": "[1]; [5]", "result": "no difference in F4/80 staining"}, {"measurement": "area of cells expressing Kim-1 protein (immunostaining), outer medulla", "setting": "[1]; [5]", "result": "significant reduction; also recorded: significantly reduced"}, {"measurement": "renal expression of Ho-1 mRNA (qRT-PCR)", "setting": "[1]; IV PHAD 200 μg/mouse vs vehicle, Day 3 (FIG. 4A)", "result": "reduced"}, {"measurement": "renal Irf-1 mRNA (qRT-PCR)", "setting": "[1]; IV PHAD 200 μg/mouse vs vehicle, Day 3 (FIG. 4B)", "result": "no differences in expression"}, {"measurement": "renal Ccl-2 mRNA (qRT-PCR)", "setting": "[1]; IV PHAD 200 μg/mouse vs vehicle, Day 3 (FIG. 4C)", "result": "no differences in expression"}, {"measurement": "renal Ccl-3 mRNA (qRT-PCR)", "setting": "[1]; IV PHAD 200 μg/mouse vs vehicle, Day 3 (FIG. 4D)", "result": "no differences in expression"}, {"measurement": "tubular injury (PAS-stained sections, outer stripe of outer medulla)", "setting": "[1]; IV PHAD 200 μg/mouse, Day 3 (FIGS. 2B, 2D)", "result": "reduced tubular injury"}, {"measurement": "apoptosis (TUNEL, outer stripe of outer medulla)", "setting": "[1]; IV PHAD 200 μg/mouse, Day 3 (FIGS. 2C, 2E)", "result": "reduced apoptosis"}, {"measurement": "Histological injury", "setting": "[2]; 200 μg (Example 1)", "result": "lower"}, {"measurement": "IL-1b mRNA", "setting": "[2]; 200 μg (Example 1)", "result": "higher"}, {"measurement": "renal Kim-1 mRNA expression (qRT-PCR)", "setting": "[2]; 200 μg PHAD, Day 3 (FIG. 1E)", "result": "no reduction"}, {"measurement": "renal N-Gal mRNA expression (qRT-PCR)", "setting": "[2]; 200 μg PHAD, Day 3 (FIG. 1E)", "result": "reduction in expression"}, {"measurement": "renal N-Gal mRNA expression (qRT-PCR)", "setting": "[2]; 200 μg PHAD, Day 3 (FIG. 1E), listed as 3D 6-Acyl PHAD", "result": "lower"}, {"measurement": "survival compared with the vehicle control group", "setting": "[2]; 2 and 20 μg pretreatment dose (FIG. 1D)", "result": "more mice survived"}, {"measurement": "BUN levels", "setting": "[2]; [6]", "result": "reduced elevations"}, {"measurement": "creatinine levels", "setting": "[2]; [6]", "result": "reduced elevations"}, {"measurement": "renal IL-1β mRNA (qRT-PCR)", "setting": "[2]; IV PHAD 2, 20, 200 μg/mouse vs vehicle control (FIG. 1E)", "result": "dose-dependent increase"}, {"measurement": "3-day survival", "setting": "[2]; IV PHAD 2, 20, 200 μg/mouse vs vehicle, log-rank test (FIG. 1D)", "result": "no significant improvement in survival"}, {"measurement": "tubular injury in the cortex and OSOM (PAS-stained sections)", "setting": "[2]; IV PHAD, increasing doses, Day 3 after injury (FIGS. 1B, 1C)", "result": "reduced tubular injury"}, {"measurement": "renal function", "setting": "[2]; pretreatment with PHAD at 48 and 24 h before unilateral IRI-AKI (Example 1)", "result": "dose-dependent preservation of renal function"}]}]}
